Data set [1] is described as follows: Rancimat oxidative stability (EN 14112) of biodiesel with additives. The class given is physicochemical. The conditions noted are these: for Rancimat oxidative stability: untreated 5.1 hours, EN 14112. The source says: The oxidative stability of biodiesel is an important property thereof and is subjected to criteria which may differ from country to country. In the US, oxidative testing of biodiesel is done according to ASTM 6751-08 whereby the B100 (100% biodiesel) must pass a minimum of three hours oxidative stability as done by the Rancimat test. The European oxidation criteria is a minimum of six hours as per EN 14112. Some commercial biodiesel manufacturers and blenders require even eight hours oxidative stability to ensure that B100 biodiesel stored for prolonged periods of time will be suitable for commerce.
Use was made in this example of a pure soy-biodiesel (methyl ester of soy oil) from a commercial source having a Rancimat oxidative stability (tested in accordance with EN 14112) of 5.1 hours.

For data set [2] the following is noted: 25° C.; cited from earlier work.
Data set [3] in a line: Solubility tests of antioxidant package components in alkanolamine / hydroxylamine. Format: physicochemical. The method, then:
Additionally, 2 grams of octyldiethanolamine (ODEA) was added to the additive mixture.

Where [4] appears, read: 450 ppm added to B100 soy-biodiesel.

Molecules are shown by their SMILES.

`CC1(C)CC(O)CC(C)(C)N1[O]` [4-HT, 4-hydroxy-2,2,6,6-tetramethylpiperidino-1-oxy]: the Rancimat oxidative stability in data set [1] (50 ppm added to B100 soy-biodiesel) turned out to be 5.5 h.

Molecule `CCCCN(CCO)CCO` [BDEA, butyldiethanolamine] came in with an oxidation stability in data set [1] (250 ppm added to a different sample of soy methyl ester) of 3.5 h. Also, the Rancimat oxidative stability in data set [1] (setting [4]) stood at 6.1 h.

Regarding `CCN(O)CC` [Diethylhydroxylamine, diethylhydroxylamine], the vapor pressure in data set [2] is on record as 32 Torr.

`CCCCCCCCN(CCO)CCO` [ODEA, octyldiethanolamine]: the “solubility in anhydrous DEHA” value in data set [3] (0.5 grams 4-HT into 7.5 grams anhydrous DEHA, additionally 2 grams ODEA) is on record as “completely soluble”. This molecule also showed a Rancimat oxidative stability in data set [1] (setting [4]) of 8.3 h.

`CCCOC(=O)c1cc(O)c(O)c(O)c1` [propyl gallate]: in data set [3] (0.5 grams 4-HT along with 1 gram propyl gallate into 15 grams OAE), the “solubility in OAE” value is given as “completely soluble”.
